Assay results from ChEMBL document CHEMBL5543092, “Design, synthesis, and biological characterization of proteolysis targeting chimera (PROTACs) for the ataxia telangiectasia and RAD3-related (ATR) kinase” (Eur J Med Chem, 2024).
The source made the active and inactive calls. The calls are words filed in the database; no cut-off is given here.

How the values were obtained:
MIA PaCa-2 [1] = test: Effect on CRBN expression in patient derived siCRBN transfected human MIA PaCa-2 cells at 5 uM measured after 24 hrs by immunoblot analysis; assay type: functional, cell-based
MIA PaCa-2 [2] = test: Induction of […] degradation in patient derived human MIA PaCa-2 cells assessed as reduction in protein level at 2 uM measured after 24 hrs by immunoblot analysis; assay type: functional, cell-based
[3] = Chemical stability of the compound in at pH 7.4 measured at 6 hrs by HPLC based non-enzymatic stability assay; assay type: physicochemical; settings: buffer, read-out: Stability
[4] = Chemical stability of the compound in at pH 7.4 measured at 12 hrs by HPLC based non-enzymatic stability assay; assay type: physicochemical; settings: buffer, read-out: Stability
[5] = Chemical stability of the compound in at pH 7.4 measured at 24 hrs by HPLC based non-enzymatic stability assay; assay type: physicochemical; settings: buffer, read-out: Stability
[6] = Chemical stability of the compound in at pH 7.4 measured at 48 hrs by HPLC based non-enzymatic stability assay; assay type: physicochemical; settings: buffer, read-out: Stability
[7] = Chemical stability of the compound in at pH 7.4 measured at 72 hrs by HPLC based non-enzymatic stability assay; assay type: physicochemical; settings: buffer, read-out: Stability
[8] = Plasma protein binding in human plasma; assay type: ADME, cell-free; settings: read-out: PPB (converted)
[9] = Plasma stability in human plasma assessed as compound remaining at 20 uM measured after 24 hrs by HPLC analysis; assay type: ADME, cell-free; settings: read-out: Stability
ATR/ATRIP = ATR/ATRIP (Homo sapiens, UniProt Q13535); test: Inhibition of human ATR/ATRIP complex using GST-cMyc-p53 substrate measured after 30 mins by HTRF based non-radioactive in vitro assay; assay type: protein-complex assay
[10] = biological target: T1, Protein cereblon/Serine/threonine-protein kinase ATR (Homo sapiens) (UniProt Q13535+Q96SW2); test: PROTAC activity at ATR/CRBN in patient derived human MIA PaCa-2 cells assessed as reduction in protein level at 500 nM measured after 24 hrs by immunoblot analysis relative to untreated control; assay type: cell-based; parameters: scale not given: the % may be the effect or the level left
[11] = biological target: T1, Protein cereblon/Serine/threonine-protein kinase ATR (Homo sapiens); test: PROTAC activity at ATR/CRBN in patient derived human MIA PaCa-2 cells assessed as reduction in protein level at 2 uM measured after 24 hrs by immunoblot analysis relative to untreated control; assay type: cell-based; parameters: scale not given: the % may be the effect or the level left
MIA PaCa-2 [12] = test: Induction of apoptosis in human MIA PaCa-2 cells assessed as cell death at 2 uM incubated for 24 hrs by Annexin-V/PI based flow cytometry; assay type: functional
MIA PaCa-2 [13] = test: Effect on GSPT1 expression in human MIA PaCa-2 cells at 0.5 to 2 uM incubated for 24 hrs by immunoblot analysis; assay type: functional, cell-based; settings: dose 0.5-2 µM
[14] = biological target: T1, Protein cereblon/Serine/threonine-protein kinase ATR (Homo sapiens); test: PROTAC activity at ATR/CRBN in human HeLa cells assessed as reduction in protein level at 500 nM measured after 24 hrs by immunoblot analysis relative to untreated control; assay type: cell-based; parameters: scale not given: the % may be the effect or the level left
[15] = biological target: T1, Protein cereblon/Serine/threonine-protein kinase ATR (Homo sapiens); test: PROTAC activity at ATR/CRBN in human HeLa cells assessed as reduction in p-ATR level at 500 nM measured after 24 hrs by immunoblot analysis relative to untreated control; assay type: cell-based; parameters: scale not given: the % may be the effect or the level left
HeLa [16] = test: Effect on ATM expression in human HeLa cells at 500 nM incubated for 24 hrs by immunoblot analysis; assay type: functional, cell-based
HeLa [17] = test: Effect on DNA-PKcs expression in human HeLa cells at 500 nM incubated for 24 hrs by immunoblot analysis; assay type: functional, cell-based
[18] = biological target: T1, Protein cereblon/Serine/threonine-protein kinase ATR (Homo sapiens); test: PROTAC activity at ATR/CRBN in patient derived human MIA PaCa-2 cells assessed as reduction in protein level at 2 uM measured after 3 hrs in presence of 50 nM bortezomib by immunoblot analysis; assay type: cell-based
[19] = biological target: T1, Protein cereblon/Serine/threonine-protein kinase ATR (Homo sapiens); test: PROTAC activity at ATR/CRBN in patient derived human MIA PaCa-2 cells assessed as reduction in protein level at 2 uM measured after 3 hrs in presence of 10 uM MG132 by immunoblot analysis; assay type: cell-based
[20] = biological target: T1, Protein cereblon/Serine/threonine-protein kinase ATR (Homo sapiens); test: PROTAC activity at ATR/CRBN in patient derived human MIA PaCa-2 cells assessed as reduction in protein level at 2 uM measured after 24 hrs by immunoblot analysis relative to irinotecan; assay type: cell-based; parameters: scale not given: the % may be the effect or the level left
[21] = biological target: T1, Protein cereblon/Serine/threonine-protein kinase ATR (Homo sapiens); test: PROTAC activity at ATR/CRBN in patient derived human MIA PaCa-2 cells assessed as reduction in irinotecan-induced p-CHK1 (S345) level at 2 uM measured after 24 hrs by immunoblot analysis relative to control; assay type: cell-based
MIA PaCa-2 [22] = test: Effect on CRBN expression in patient derived siCRBN transfected human MIA PaCa-2 cells at 2 uM measured after 24 hrs by immunoblot analysis; assay type: functional, cell-based
HEK293 = test: Cytotoxicity against human HEK293 cells assessed as cell viability at 50 uM incubated for 24 hrs by Alamar Blue reagent based assay relative to control; assay type: functional; settings: read-out: Activity
[23] = biological target: T1, Protein cereblon/Serine/threonine-protein kinase ATR (Homo sapiens); test: PROTAC activity at ATR/CRBN in patient derived human MIA PaCa-2 cells assessed as reduction in p-ATR (T1989) level at 2 uM measured after 24 hrs by immunoblot analysis relative to control; assay type: cell-based

T1 sequence (Q13535 whole entry, looked up): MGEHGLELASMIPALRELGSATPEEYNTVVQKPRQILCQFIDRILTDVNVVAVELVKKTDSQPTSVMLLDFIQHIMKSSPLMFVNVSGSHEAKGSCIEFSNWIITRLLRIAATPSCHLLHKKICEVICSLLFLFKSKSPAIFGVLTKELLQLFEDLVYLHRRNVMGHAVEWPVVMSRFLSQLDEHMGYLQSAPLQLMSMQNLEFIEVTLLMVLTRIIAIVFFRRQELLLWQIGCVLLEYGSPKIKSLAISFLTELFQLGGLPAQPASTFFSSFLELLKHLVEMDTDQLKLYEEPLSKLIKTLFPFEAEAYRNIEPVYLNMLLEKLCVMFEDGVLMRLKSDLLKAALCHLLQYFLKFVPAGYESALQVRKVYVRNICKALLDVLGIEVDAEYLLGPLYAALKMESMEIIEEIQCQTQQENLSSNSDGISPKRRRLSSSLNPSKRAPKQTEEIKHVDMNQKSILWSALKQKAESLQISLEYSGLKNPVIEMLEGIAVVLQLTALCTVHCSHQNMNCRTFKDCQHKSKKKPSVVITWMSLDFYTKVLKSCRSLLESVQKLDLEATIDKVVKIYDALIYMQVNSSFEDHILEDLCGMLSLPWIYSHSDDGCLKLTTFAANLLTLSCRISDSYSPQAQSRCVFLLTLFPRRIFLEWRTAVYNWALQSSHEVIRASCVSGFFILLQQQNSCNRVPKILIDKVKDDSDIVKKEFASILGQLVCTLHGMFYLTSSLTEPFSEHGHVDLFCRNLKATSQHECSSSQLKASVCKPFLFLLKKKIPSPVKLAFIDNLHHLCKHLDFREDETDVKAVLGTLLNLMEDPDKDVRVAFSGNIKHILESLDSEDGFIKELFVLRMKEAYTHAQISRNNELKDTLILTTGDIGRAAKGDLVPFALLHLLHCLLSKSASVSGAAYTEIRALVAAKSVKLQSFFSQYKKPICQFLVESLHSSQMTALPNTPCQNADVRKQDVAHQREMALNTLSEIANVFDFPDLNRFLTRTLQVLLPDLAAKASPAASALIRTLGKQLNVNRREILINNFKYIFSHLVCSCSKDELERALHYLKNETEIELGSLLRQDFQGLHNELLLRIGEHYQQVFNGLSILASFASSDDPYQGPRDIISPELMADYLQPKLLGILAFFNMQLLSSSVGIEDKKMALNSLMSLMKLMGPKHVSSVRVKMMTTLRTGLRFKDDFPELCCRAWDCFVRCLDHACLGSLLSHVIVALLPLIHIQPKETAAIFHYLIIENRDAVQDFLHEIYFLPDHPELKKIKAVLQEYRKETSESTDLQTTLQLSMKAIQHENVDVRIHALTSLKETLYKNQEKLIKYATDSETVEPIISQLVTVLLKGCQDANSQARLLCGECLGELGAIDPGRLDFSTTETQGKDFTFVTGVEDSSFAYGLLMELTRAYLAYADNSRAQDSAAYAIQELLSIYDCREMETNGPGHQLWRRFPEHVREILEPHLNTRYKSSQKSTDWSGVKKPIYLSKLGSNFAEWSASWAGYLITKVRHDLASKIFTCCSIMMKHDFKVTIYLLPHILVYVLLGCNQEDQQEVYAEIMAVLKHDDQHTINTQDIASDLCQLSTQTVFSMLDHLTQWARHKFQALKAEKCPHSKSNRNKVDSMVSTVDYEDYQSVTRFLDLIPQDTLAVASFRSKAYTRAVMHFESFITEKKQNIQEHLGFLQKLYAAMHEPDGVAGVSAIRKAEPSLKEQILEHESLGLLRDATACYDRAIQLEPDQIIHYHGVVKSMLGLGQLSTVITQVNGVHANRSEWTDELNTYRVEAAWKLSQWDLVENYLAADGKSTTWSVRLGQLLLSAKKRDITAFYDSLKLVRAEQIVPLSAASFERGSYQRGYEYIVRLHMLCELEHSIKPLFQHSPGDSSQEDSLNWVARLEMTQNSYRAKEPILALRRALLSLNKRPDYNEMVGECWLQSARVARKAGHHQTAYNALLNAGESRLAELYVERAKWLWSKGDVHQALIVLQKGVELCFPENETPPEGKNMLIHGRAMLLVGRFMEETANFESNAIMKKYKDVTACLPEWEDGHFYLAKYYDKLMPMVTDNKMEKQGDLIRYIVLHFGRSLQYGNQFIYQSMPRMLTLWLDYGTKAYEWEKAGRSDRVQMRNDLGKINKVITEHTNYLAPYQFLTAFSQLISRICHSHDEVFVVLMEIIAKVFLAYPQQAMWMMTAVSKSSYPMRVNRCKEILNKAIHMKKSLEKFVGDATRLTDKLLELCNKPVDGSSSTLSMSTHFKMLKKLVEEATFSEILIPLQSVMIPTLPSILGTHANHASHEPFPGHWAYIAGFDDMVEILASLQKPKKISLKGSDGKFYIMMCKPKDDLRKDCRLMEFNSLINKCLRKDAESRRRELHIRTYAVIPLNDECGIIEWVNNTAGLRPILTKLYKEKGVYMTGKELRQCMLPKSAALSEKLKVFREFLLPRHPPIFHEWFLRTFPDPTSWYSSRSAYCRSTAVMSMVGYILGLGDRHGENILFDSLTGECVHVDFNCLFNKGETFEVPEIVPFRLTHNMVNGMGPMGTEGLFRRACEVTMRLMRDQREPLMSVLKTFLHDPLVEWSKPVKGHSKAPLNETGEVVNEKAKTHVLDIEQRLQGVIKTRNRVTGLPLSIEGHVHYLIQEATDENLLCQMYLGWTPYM
T1 sequence (Q96SW2 whole entry, looked up): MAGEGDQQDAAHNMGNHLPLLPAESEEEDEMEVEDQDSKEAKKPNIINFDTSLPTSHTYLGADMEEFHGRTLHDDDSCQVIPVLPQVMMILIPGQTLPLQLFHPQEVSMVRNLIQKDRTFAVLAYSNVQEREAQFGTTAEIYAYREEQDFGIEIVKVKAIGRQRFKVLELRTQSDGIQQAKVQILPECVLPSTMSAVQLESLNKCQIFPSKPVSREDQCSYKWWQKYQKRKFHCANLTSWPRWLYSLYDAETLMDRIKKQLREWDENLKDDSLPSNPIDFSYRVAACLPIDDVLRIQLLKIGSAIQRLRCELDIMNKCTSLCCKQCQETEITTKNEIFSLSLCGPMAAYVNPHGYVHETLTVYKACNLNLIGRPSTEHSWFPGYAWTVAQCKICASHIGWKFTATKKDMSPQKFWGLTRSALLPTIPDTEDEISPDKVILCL
Sequence of ATR/ATRIP (Q13535 whole entry): as the sequence (Q13535 whole entry, looked up) above
Sequence of ATR/ATRIP (Q8WXE1 whole entry, further chain): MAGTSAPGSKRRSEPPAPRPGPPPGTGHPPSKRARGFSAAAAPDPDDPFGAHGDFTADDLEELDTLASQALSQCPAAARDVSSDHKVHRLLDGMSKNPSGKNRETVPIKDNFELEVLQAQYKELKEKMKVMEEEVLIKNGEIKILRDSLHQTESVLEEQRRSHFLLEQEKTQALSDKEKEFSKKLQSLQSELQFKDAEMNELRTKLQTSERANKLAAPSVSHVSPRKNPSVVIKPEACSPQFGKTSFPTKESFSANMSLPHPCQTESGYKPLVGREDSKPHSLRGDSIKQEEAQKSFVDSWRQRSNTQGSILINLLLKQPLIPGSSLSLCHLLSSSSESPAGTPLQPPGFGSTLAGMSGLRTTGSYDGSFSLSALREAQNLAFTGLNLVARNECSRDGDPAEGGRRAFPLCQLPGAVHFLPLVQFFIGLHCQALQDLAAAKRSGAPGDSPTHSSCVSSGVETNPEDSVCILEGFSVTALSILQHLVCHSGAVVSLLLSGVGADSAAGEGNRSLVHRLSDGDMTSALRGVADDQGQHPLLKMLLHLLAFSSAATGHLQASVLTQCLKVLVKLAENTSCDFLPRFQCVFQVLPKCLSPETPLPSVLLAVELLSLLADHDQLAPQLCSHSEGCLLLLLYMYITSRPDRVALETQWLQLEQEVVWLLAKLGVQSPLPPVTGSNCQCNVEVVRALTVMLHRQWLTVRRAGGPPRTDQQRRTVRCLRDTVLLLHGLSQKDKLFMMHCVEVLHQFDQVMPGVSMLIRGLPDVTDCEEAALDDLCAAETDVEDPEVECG

In the case of CCc1c2c(nc3ccc(OC(=O)N4CCC(N5CCCCC5)CC4)cc13)-c1cc3c(c(=O)n1C2)COC(=O)[C@]3(O)CC, the Activity (MIA PaCa-2 [1]) is reported as “inactive”.

For CS(=O)(=O)c1ccc(-c2cnc(N)c(C(=O)Nc3ccccc3)n2)cc1, the Activity (MIA PaCa-2 [2]) was “inactive”.

For Nc1ncc(-c2ccc(S(=O)(=O)NCCCCCC(=O)NCCCC#Cc3cccc4c3CN(C3CCC(=O)NC3=O)C4=O)cc2)nc1C(=O)Nc1ccccc1 (stereo not given), the remaining at 6 h [3] was 102%, the remaining at 12 h [4] was 104% and the remaining at 24 h [5] was 106%. For the same compound, the remaining at 48 h [6] was 110%, the remaining at 72 h [7] was 115% and the fraction unbound [8] was 0.106. For the same compound, the remaining at 24 h, 20 µM [9] was 75%, the IC50 (ATR/ATRIP) was greater than 10 µM and the Activity [10] was 40%. For the same compound, the Activity [11] was 40%, the Activity (MIA PaCa-2 [12]) was “inactive” and the Activity (MIA PaCa-2 [13]) was “inactive”. For the same compound, the Activity [14] was 60%, the Activity [15] was 60% and the Activity (HeLa [16]) was “inactive”. For the same compound, the Activity (HeLa [17]) was “inactive”, the Activity [18] was “inactive” and the Activity [19] was “inactive”. For the same compound, the Activity [20] was 80%, the fold change (FC) [21] was 0.5 and the Activity (MIA PaCa-2 [22]) was “inactive”. It also gave a viability at 50 µM (HEK293) of 77.1% and a fold change (FC) [23] of 0.1.
